Assay results: paper PMC11868595, “Safety, pharmacokinetics and efficacy of HA121-28 in patients with advanced solid tumors and RET fusion-positive non-small-cell lung cancer: a multicenter, open-label, single-arm phase 1/2 trial” (Signal Transduction and Targeted Therapy, 2025)
Like-named read-outs stand apart in the source and are kept apart here. Marks after values point to notes of the source that are not given here.

Tests used:
[1] = test system: human gastric cancer SGC-7901 tumors; assay: SGC-7901 tumors in nude mice; type: in vivo
Excerpt: (§1) was higher than that of vandetanib .
as §1
Table S16. Efficacy of HA121-28 on human gastric cancer SGC-7901 tumors

[2] = test system: human esophageal cancer ECA-109 tumors; assay: ECA-109 tumors in nude mice; type: in vivo; conditions: 8 mg/kg
[3] = test system: human esophageal cancer KYSE-150 xenografts; assay: KYSE-150 xenografts in nude mice; type: in vivo
[4] = test system: RET fusion-positive NSCLC; conditions: cited from earlier work
HCT116 cells = assay: Tumor cell proliferation in vitro; type: cell-based; conditions: Homo sapiens, HCT-116
[5] = test system: human melanoma A375 tumors; assay: A375 tumors in nude mice; type: in vivo
A375 cells = assay: Tumor cell proliferation in vitro; type: cell-based, human; conditions: Homo sapiens, A-375
A498 cells = assay: Tumor cell proliferation in vitro; type: cell-based; conditions: Homo sapiens
BEL-7402 cells = assay: Tumor cell proliferation in vitro; type: cell-based; conditions: Homo sapiens, Bel-7402; read-out: IC50, proliferation
VEGFR and ERK activation = assay: VEGF165-stimulated activation of VEGFR and ERK in HUVEC cells; type: cell-based, human; conditions: 50 ng/mL VEGF165, concentration-dependent
EGFR and ERK activation = assay: EGF-stimulated activation of EGFR and ERK in A431 cells; type: cell-based, human; conditions: 10 ng/mL EGF, concentration-dependent
TT cells = assay: Tumor cell proliferation in vitro; type: cell-based, human; conditions: Homo sapiens
SGC-7901 cells = assay: Tumor cell proliferation in vitro; type: cell-based, human; conditions: Homo sapiens, SGC-7901; SGC7901
[6] = ref Phase I clinical study results of vandetanib; cited from earlier work
CFPAC-1 cells = assay: Tumor cell proliferation in vitro; type: cell-based; conditions: Homo sapiens
KYSE-150 cells = assay: Tumor cell proliferation in vitro; type: cell-based, human; conditions: Homo sapiens, KYSE-150; read-out: IC50, proliferation
8305C cells = assay: Tumor cell proliferation in vitro; type: cell-based; conditions: Homo sapiens
HUVEC cells = assay: cells; conditions: Homo sapiens
[7] = test system: human thyroid cancer TT tumors; assay: TT tumors in nude mice; type: in vivo; conditions: TT tumors
Excerpt: as §1, §1
Table S15. Efficacy of HA121-28 on human thyroid cancer TT tumors

A431 cells = assay: Tumor cell proliferation in vitro; type: cell-based, human; conditions: Homo sapiens, A-431, read-out: IC50, proliferation

Compound: N#CC1(c2ccc(NC(=O)c3cccnc3NCc3ccncc3)cc2)CCCC1 [Apatinib]
- RTV ±SD ([1]; 200 mg/kg): 4.2±1.2
- T/C ([1]; 200 mg/kg): 26.5%
- Terminal Tumor Volume ([1]; 200 mg/kg): 793.5±324.4** mm^3

Compound: N.N.[Cl][Pt][Cl] [Cisplatin]
- RTV ±SD [2]: 6.4±2.9
- T/C [2]: 62.0%
- Terminal Tumor Volume [2]: 1,580.0±952.4 mm^3
- RTV X±SD ([3]; 10 mg/kg): 5.0±3.9
- T/C ([3]; 10 mg/kg): 32.6%
- Terminal Tumor Volume ([3]; 10 mg/kg): 694.4±237.4** mm^3

Compound: CO[C@]1(C(=O)N[C@@H](C)c2ccc(-n3cc(F)cn3)nc2)CC[C@H](c2nc(C)cc(Nc3cc(C)[nH]n3)n2)CC1 [Pralsetinib]
- ORR ([4]; platinum-pretreated patients ref 38): 61%

Compound: COc1ccc(CN2C3CC2CN(c2ccc(-c4cc(OCC(C)(C)O)cn5ncc(C#N)c45)cn2)C3)cn1 [Selpercatinib]
- ORR ([4]; platinum-pretreated patients ref 37): 61%

Compound: COc1cc2c(Nc3ccc(Br)cc3F)ncnc2cc1OCC1CCN(C)CC1 [vandetanib, reference compound]
- IC50 (HCT116 cells): 3190 ± 688 nM
- RTV ±SD ([5]; 12.5 mg/kg): 22.1±17.2
- T/C ([5]; 12.5 mg/kg): 108.1%
- Terminal Tumor Volume ([5]; 12.5 mg/kg): 2824.1±1001.2 mm^3
- RTV ±SD ([5]; 25 mg/kg): 11.4±4.7
- T/C ([5]; 25 mg/kg): 55.7%
- Terminal Tumor Volume ([5]; 25 mg/kg): 1719.9±822.4 mm^3
- RTV ±SD ([5]; 50 mg/kg): 7.2±1.4
- T/C ([5]; 50 mg/kg): 35.0%
- IC50 (A375 cells): 2190 ± 318 nM
- IC50 (A498 cells): 1030 ± 42.7 nM
- IC50 (BEL-7402 cells): 15100 ± 1130 nM
- activation of VEGFR and downstream ERK (VEGFR and ERK activation): significantly inhibited
- activation of EGFR and downstream ERK (EGFR and ERK activation): significantly inhibited
- IC50 (TT cells): 3570 ± 38.2 nM
- IC50 (SGC-7901 cells): 4370 ± 441 nM
- MTD [6]: 500 mg/day
- IC50 (CFPAC-1 cells): 336 ± 10 nM
- IC50 (KYSE-150 cells): 1500 ± 135 nM
- IC50 (8305C cells): 1250 ± 96.3 nM
- IC50 (HUVEC cells): 117 nM
- RTV X±SD ([3]; 12.5 mg/kg): 5.2±1.9
- T/C ([3]; 12.5 mg/kg): 34.2%
- Terminal Tumor Volume ([3]; 12.5 mg/kg): 847.0±247.2** mm^3
- RTV X±SD ([3]; 25 mg/kg): 2.6±0.7
- T/C ([3]; 25 mg/kg): 16.8%
- Terminal Tumor Volume ([3]; 25 mg/kg): 489.8±273.9** mm^3
- RTV X±SD ([3]; 50 mg/kg): 1.3±0.6
- T/C ([3]; 50 mg/kg): 8.4%
- Terminal Tumor Volume ([3]; 50 mg/kg): 273.9±189.8** mm^3
- RTV ±SD ([7]; 25 mg/kg): 2.1±1.0
- T/C ([7]; 25 mg/kg): 34.1%
- Terminal Tumor Volume ([7]; 25 mg/kg): 302.4±91.1** mm^3
- RTV ±SD ([7]; 50 mg/kg): 1.0±0.4
- T/C ([7]; 50 mg/kg): 17.0%
- Terminal Tumor Volume ([7]; 50 mg/kg): 155.5±82.1** mm^3
- RTV ±SD ([7]; 75 mg/kg): 0.5±0.2
- T/C ([7]; 75 mg/kg): 8.9%
- Terminal Tumor Volume ([7]; 75 mg/kg): 100.1±62.5** mm^3
- IC50 (A431 cells): 1140 ± 255 nM
- RTV ±SD ([1]; 50 mg/kg): 3.6±1.7
- T/C ([1]; 50 mg/kg): 23.0%
- Terminal Tumor Volume ([1]; 50 mg/kg): 690.9±259.8** mm^3
- RTV ±SD ([1]; 75 mg/kg): 2.3±1.0
- T/C ([1]; 75 mg/kg): 14.3%
- Terminal Tumor Volume ([1]; 75 mg/kg): 486.9±221.2** mm^3
